Reference: PubChem BioAssay AID2060912 (Molecular Pharmacology Branch, DTP, NCI, 2025)

System: HUVEC/MSC spheroids viability
Assay: Human HUVEC/MSC cell line growth inhibition [KRAS2];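 on viability, T/C: percent of DMSO vehicle control luminescence so 100% = untreated viability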
Details: for viability, T/C: stronger effect = lower value
Method in brief: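 Concentration ranges start near each agent's clinical Cmax, or at 10 microM if none is established, and fall by half-log increments. These ranges are tested as single agents and combinations on endothelial/mesenchymal stem cell spheroids lacking tumour cells.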

[1] = curve of first compound, second compound 0.0316 µM
[2] = curve of first compound, second compound 0.1 µM
[3] = curve of first compound, second compound 0.316 µM
[4] = curve of first compound, second compound 1 µM
[5] = curve of first compound, second compound 3.16 µM
[6] = curve of first compound, second compound 10 µM

## CN(C)C/C=C/C(=O)Nc1cc2c(Nc3ccc(F)c(Cl)c3)ncnc2cc1O[C@H]1CCOC1 + COc1cc2nc(C)nc(NC(C)c3cc(N)cc(C(F)(F)F)c3)c2cc1OC1CCOC1
[1]
  IC50: > 100 nM
[2]
  IC50: > 100 nM
[3]
  IC50: > 100 nM
[4]
  IC50: > 100 nM
[5]
  IC50: > 100 nM
[6]
  IC50: > 100 nM
Second compound 0.0316 µM, first compound 0.000316 µM
  viability, T/C: 98.6%
Second compound 0.0316 µM, first compound 0.001 µM
  viability, T/C: 110%
Second compound 0.0316 µM, first compound 0.00316 µM
  viability, T/C: 104%
Second compound 0.0316 µM, first compound 0.01 µM
  viability, T/C: 92.8%
Second compound 0.0316 µM, first compound 0.0316 µM
  viability, T/C: 86.8%
Second compound 0.0316 µM, first compound 0.1 µM
  viability, T/C: 107%
Second compound 0.1 µM, first compound 0.000316 µM
  viability, T/C: 96.3%
Second compound 0.1 µM, first compound 0.001 µM
  viability, T/C: 90.2%
Second compound 0.1 µM, first compound 0.00316 µM
  viability, T/C: 96.8%
Second compound 0.1 µM, first compound 0.01 µM
  viability, T/C: 73.7%
Second compound 0.1 µM, first compound 0.0316 µM
  viability, T/C: 90.5%
Second compound 0.1 µM, first compound 0.1 µM
  viability, T/C: 85.1%
Second compound 0.316 µM, first compound 0.000316 µM
  viability, T/C: 132%
Second compound 0.316 µM, first compound 0.001 µM
  viability, T/C: 102%
Second compound 0.316 µM, first compound 0.00316 µM
  viability, T/C: 86.9%
Second compound 0.316 µM, first compound 0.01 µM
  viability, T/C: 99.3%
Second compound 0.316 µM, first compound 0.0316 µM
  viability, T/C: 74.8%
Second compound 0.316 µM, first compound 0.1 µM
  viability, T/C: 97.3%
Second compound 1 µM, first compound 0.000316 µM
  viability, T/C: 112%
Second compound 1 µM, first compound 0.001 µM
  viability, T/C: 104%
Second compound 1 µM, first compound 0.00316 µM
  viability, T/C: 97.6%
Second compound 1 µM, first compound 0.01 µM
  viability, T/C: 84%
Second compound 1 µM, first compound 0.0316 µM
  viability, T/C: 91.6%
Second compound 1 µM, first compound 0.1 µM
  viability, T/C: 104%
Second compound 3.16 µM, first compound 0.000316 µM
  viability, T/C: 91.6%
Second compound 3.16 µM, first compound 0.001 µM
  viability, T/C: 99.1%
Second compound 3.16 µM, first compound 0.00316 µM
  viability, T/C: 76.3%
Second compound 3.16 µM, first compound 0.01 µM
  viability, T/C: 95.8%
Second compound 3.16 µM, first compound 0.0316 µM
  viability, T/C: 75.3%
Second compound 3.16 µM, first compound 0.1 µM
  viability, T/C: 83.7%
Second compound 10 µM, first compound 0.000316 µM
  viability, T/C: 60.7%
Second compound 10 µM, first compound 0.001 µM
  viability, T/C: 85.5%
Second compound 10 µM, first compound 0.00316 µM
  viability, T/C: 80%
Second compound 10 µM, first compound 0.01 µM
  viability, T/C: 59.6%
Second compound 10 µM, first compound 0.0316 µM
  viability, T/C: 74.4%
Second compound 10 µM, first compound 0.1 µM
  viability, T/C: 74.4%

## CC1COCCN1c1cc(-c2ccnn2C)c2ccnc(-c3ccn[nH]3)c2n1 (stereo not given) + COc1cc2nc(C)nc(NC(C)c3cc(N)cc(C(F)(F)F)c3)c2cc1OC1CCOC1
[1]
  IC50: 1740 nM
[2]
  IC50: 908 nM
[3]
  IC50: > 3000 nM
[4]
  IC50: 1040 nM
[5]
  IC50: 2520 nM
[6]
  IC50: > 3000 nM
Second compound 0.0316 µM, first compound 0.00949 µM
  viability, T/C: 98.9%
Second compound 0.0316 µM, first compound 0.03 µM
  viability, T/C: 92.4%
Second compound 0.0316 µM, first compound 0.0949 µM
  viability, T/C: 86.8%
Second compound 0.0316 µM, first compound 0.3 µM
  viability, T/C: 75.7%
Second compound 0.0316 µM, first compound 0.949 µM
  viability, T/C: 55.9%
Second compound 0.0316 µM, first compound 3 µM
  viability, T/C: 43.9%
Second compound 0.1 µM, first compound 0.00949 µM
  viability, T/C: 83.2%
Second compound 0.1 µM, first compound 0.03 µM
  viability, T/C: 81.1%
Second compound 0.1 µM, first compound 0.0949 µM
  viability, T/C: 79.7%
Second compound 0.1 µM, first compound 0.3 µM
  viability, T/C: 80.4%
Second compound 0.1 µM, first compound 0.949 µM
  viability, T/C: 48.8%
Second compound 0.1 µM, first compound 3 µM
  viability, T/C: 46.4%
Second compound 0.316 µM, first compound 0.00949 µM
  viability, T/C: 82.2%
Second compound 0.316 µM, first compound 0.03 µM
  viability, T/C: 95%
Second compound 0.316 µM, first compound 0.0949 µM
  viability, T/C: 80.3%
Second compound 0.316 µM, first compound 0.3 µM
  viability, T/C: 79.8%
Second compound 0.316 µM, first compound 0.949 µM
  viability, T/C: 47.6%
Second compound 0.316 µM, first compound 3 µM
  viability, T/C: 52.4%
Second compound 1 µM, first compound 0.00949 µM
  viability, T/C: 88.3%
Second compound 1 µM, first compound 0.03 µM
  viability, T/C: 89.8%
Second compound 1 µM, first compound 0.0949 µM
  viability, T/C: 95.8%
Second compound 1 µM, first compound 0.3 µM
  viability, T/C: 72.1%
Second compound 1 µM, first compound 0.949 µM
  viability, T/C: 53.3%
Second compound 1 µM, first compound 3 µM
  viability, T/C: 37.3%
Second compound 3.16 µM, first compound 0.00949 µM
  viability, T/C: 79%
Second compound 3.16 µM, first compound 0.03 µM
  viability, T/C: 94.1%
Second compound 3.16 µM, first compound 0.0949 µM
  viability, T/C: 93.2%
Second compound 3.16 µM, first compound 0.3 µM
  viability, T/C: 81.7%
Second compound 3.16 µM, first compound 0.949 µM
  viability, T/C: 59.5%
Second compound 3.16 µM, first compound 3 µM
  viability, T/C: 48.2%
Second compound 10 µM, first compound 0.00949 µM
  viability, T/C: 63.3%
Second compound 10 µM, first compound 0.03 µM
  viability, T/C: 72.6%
Second compound 10 µM, first compound 0.0949 µM
  viability, T/C: 65.2%
Second compound 10 µM, first compound 0.3 µM
  viability, T/C: 60.4%
Second compound 10 µM, first compound 0.949 µM
  viability, T/C: 59.4%
Second compound 10 µM, first compound 3 µM
  viability, T/C: 59%

## Cn1nccc1Nc1nccc(-c2cc3c(s2)C(C)(C)N(CCN2CCOCC2)C3=O)n1
Compound 0.0316 µM
  viability, T/C: 91.1% [middle of 5 runs]
Compound 0.1 µM
  viability, T/C: 105% [middle of 5 runs]
Compound 1 µM
  viability, T/C: 99.3% [middle of 5 runs]
Compound 3.16 µM
  viability, T/C: 40.5% [middle of 5 runs]
Compound 10 µM
  viability, T/C: 5.24% [middle of 5 runs]
Curve of compound
  IC50: 2.65 µM [middle of 5 runs]
